Source: PMC11013143, “4-Chloroisocoumarins as Chlamydial Protease Inhibitors and Anti-Chlamydial Agents” (Molecules, 2024)

Target: T1, CtHtrA (Chlamydia trachomatis serovar D, UniProt P18584)
T1 construct: made in house; host or cells: E. coli BL21(DE3), pET22b
Experiment: CtHtrA protease inhibition assay
Assay type: biochemical
Conditions: for IC50: IC50 against CtHtrA; for Relative Potency against CtHtrA: [IC50 of control]/[IC50 test compound]
Method: The inhibitory activity of compounds 2a–g against CtHtrA was evaluated. […] As these compounds are reportedly covalent inhibitors of serine proteases, a true IC50 is unable to be calculated. Instead, the residual activity of the protease is monitored over time in response to a range of compound concentrations, and an IC50 value is interpolated from a dose–response curve (see Figures S2–S4 and Tables S1 and S2). This IC50 value is then compared to a positive control (JO146 was used for 2a–g, and 2g was used for 6a–h), giving the ‘relative potency’. This is the established method for assessing CtHtrA inhibitory potency. […] This effect may be due to depth restrictions within the S1 subpocket, as kinetic studies on the rates of protease inhibition in HLE were reduced by larger C-3 alkoxy substituents. Chain branching (iso-propyl and sec-butyl substituents) increased the activity, resulting in a 1.4-fold increase for 2e over 2b and a 2.8-fold improvement for 2g over 2c.
CtHtrA was expressed using an procedure adapted from the literature. Recombinant E. coli BL21(DE3) pET22b was grown in LB media containing 100 ug/mL ampicillin to an OD600 of 0.5-0.6 in 5 × 400 mL batches at 37 °C. Isopropyl β-D-1-thioglactopyranoside (1 M, 400 µL, 1 mM final concentration) was added to each flask and incubated at 30 °C with shaking at 150 rpm for an additional 2.5 h. The culture was centrifuged at 4000× g for 15 min at 4 °C, and the cell pellet was harvested and resuspended in lysis buffer (50 mM phosphate, 10 mM imidazole, 500 mM NaCl, 0.1% Triton X-100, 10% glycerol). Lysozyme was added to the suspended cells and was sonicated in 15 cycles of 15 s, with one minute between cycles while maintaining 4 °C, and then centrifuged at 8000× g for 20 min to remove any debris, retaining the supernatant for protein purification.
TALON® metal affinity resin (Takara cat no. 635652, 5 mL) was added to each lysate tube and washed sequentially with lysis buffer (2 × 45 mL) and stringency buffer (4 × 45 mL) and then eluted with elution buffer (2 × 5 mL), allowing incubations at 4 °C for 20 min per wash, and centrifuging at 2500× g and 4 °C between washes to pellet the resin. The eluates were dialyzed in Tris buffer (pH 7.0, 50 mM, 4 L) with magnesium chloride (20 mM) at 4 °C five times over 24 h, with a minimum of three hours per dialysis change. Protein expression and isolation were confirmed with SDS-PAGE Coomassie stained gel, which was examined for the band at the correct size, and a BCA assay to confirm purified protein concentration prior to use.
CtHtrA was added to 25 wells in a black 96-well plate (40–80 µL, 10 µL increments), to which Tris-HCl buffer (50 mM, pH 7.0 with 20 mM MgCl2) was added to bring the total volume to 90 µL for 10 wells and 85 µL for the remaining 15. JO146 (10 µM, 5 µL) was added to 5 wells and JO146 (1 µM, 5 µL) was added to another 5 wells, with DMSO (5 µL) being added to the remaining 5 as a control. The plate was incubated at 37 °C for 10 min before substrate (MCA-ENLHLPLPIIFK-DNP, 10 µL, 1 mg/mL, 50% isopropanol in buffer) was added and analyzed in a TECAN Infinite Pro M200 plate reader with an excitation wavelength of 340 nm and fluorescence measured at 405 nm with four reads per well at 60 s intervals. A minimum volume of CtHtrA granting a fluorescence change of 300 min^−1 was used for subsequent assay.
The determined appropriate volume of CtHtrA in buffer was added to a 96-well non-transparent black plate and diluted to 85 µL with buffer solution. Drug or control (5 µL) at a maximum of 20% DMSO/80% buffer was added to the appropriate well with DMSO controls, and the plate was incubated for 10 min to allow activation by the protein. MCA-ENLHLPLPIIFK-DNP (Mimotopes, Australia, 1 mg/mL, 10 µL) was added and immediately monitored on a TECAN M200 Infinite plate reader at 37 °C every 60 s for 30 min, using the same wavelengths as for the activity evaluation. […]

T1 sequence (P18584 17-497): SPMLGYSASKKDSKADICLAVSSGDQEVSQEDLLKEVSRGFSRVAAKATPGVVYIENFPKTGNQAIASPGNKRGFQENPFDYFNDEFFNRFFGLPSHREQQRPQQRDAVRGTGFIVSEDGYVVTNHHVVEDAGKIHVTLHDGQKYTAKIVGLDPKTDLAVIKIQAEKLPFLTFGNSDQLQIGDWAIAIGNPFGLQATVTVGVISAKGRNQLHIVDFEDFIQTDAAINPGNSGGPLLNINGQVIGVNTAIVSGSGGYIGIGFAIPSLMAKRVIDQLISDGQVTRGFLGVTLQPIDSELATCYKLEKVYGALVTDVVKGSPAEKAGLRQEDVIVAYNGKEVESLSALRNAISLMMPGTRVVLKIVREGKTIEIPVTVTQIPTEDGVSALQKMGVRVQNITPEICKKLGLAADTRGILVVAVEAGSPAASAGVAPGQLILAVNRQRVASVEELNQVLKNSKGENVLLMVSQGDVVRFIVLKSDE

SMILES | IC50 (Table S2, Batch 3, control 2g) [µM] | Relative Potency against CtHtrA (control 2g) | also measured
CCC(C)Oc1oc(=O)c2ccccc2c1Cl (racemic) [Compound 2g, (±)-3-sec-Butoxy-4-chloroisocoumarin] | 34.9 | – | Relative Selectivity ((relative CtHtrA potency)/(relative HLE potency)): 14.6; IC50 (Table S2, Batch 2, control JO146): 9.11 µM; IC50 (Table S2, Batch 4, control 2g): 32.3 µM; IC50 (Table S2, Batch 5, control 2g): 28 µM; Relative Potency against CtHtrA (control JO146): 6.58
CCC(C)Oc1oc(=O)c2cc(N)ccc2c1Cl (racemic) [Compound 6a, (±)-7-Amino-4-chloro-3-sec-butoxyisocoumarin] | 107 | 0.326 | –
CCC(C)Oc1oc(=O)c2cc(N(C)C)ccc2c1Cl (racemic) [Compound 6b, (±)-7-(Dimethylamino)-3-sec-butoxy-4-chloroisocoumarin] | 309 | 0.113 | –
CCC(C)Oc1oc(=O)c2cc(NC(C)=O)ccc2c1Cl (racemic) [Compound 6c, (±)-N-(4-Chloro-1-oxo-3-sec-butoxy-isochromen-7-yl)acetamide] | 221 | 0.158 | –
CCC(C)Oc1oc(=O)c2cc(NC(=O)C(F)(F)F)ccc2c1Cl (racemic) [Compound 6d, (±)-N-(4-chloro-1-oxo-3-sec-butoxy-isochromen-7-yl)-2,2,2-trifluoroacetamide] | – | <0.001 | IC50 against CtHtrA (Table S2, Batch 4, control 2g): Not active
CCC(C)Oc1oc(=O)c2cc(I)ccc2c1Cl (racemic) [Compound 6e, (±)-3-sec-Butoxy-4-chloro-7-iodoisocoumarin] | – | <0.001 | IC50 against CtHtrA (Table S2, Batch 4, control 2g): Not active
CCC(C)Oc1oc(=O)c2cc(OC)ccc2c1Cl (racemic) [Compound 6h, (±)-7-Methoxy-3-sec-butoxy-4-chloroisocoumarin] | – | 0.184 | IC50 (Table S2, Batch 5, control 2g): 152 µM
